Measurements: patent publication US11098294B2, “Anti-inflammatory peptides and composition comprising same” (GemVax & KAEL Co., Ltd., priority 2012, dated 2021)

What was measured:
[1] = test system: TNF-α; experiment: TNF-α level in THP1 cell line differentiated by PMA (ELISA); assay type: cell-based, human; settings: THP-1 differentiated by PMA, 1 μM peptide 1 hour; for reduction of TNF-α level compared to control group treated only with LPS: LPS 10 ng/ml 2 hours; for reduction of expression level of TNF-α compared to group treated with LPS and estrogen: LPS 10 ng/ml
Method: Experiment was carried out using THP-1 cell line (American Type Culture Collection (ATCC), Manassas, Va., USA) which is human acute monocytic leukemia.
THP-1 cells were incubated to reach the number of 1×10^5 cells per well in a 96-well plate with RPMI 1640 medium for 24 hrs, followed by addition of […] of PMA (phorbol 12-myristate 13-acetate) for the differentiation into macrophage. After differentiation of THP-1 into macrophage by PMA for a day, LPS was treated for 2 hrs and washed off. Starvation for an hour and PEP1 treatment followed.
THP-1 cell differentiated by PMA was treated with LPS (lipopolysaccharide; 10 ng/ml, Sigma) for 2 hours, followed by 2 times washes with PBS. To the cells, OPTI-MEM culture medium was added to induce cell starvation for an hour, and 1 μM of 161 peptides was taken out and incubated for an hour. After incubation, TNF-α level was measured by using the ELISA kit and the peptides which reduce the TNF-α level were screened (FIG. 17 to FIG. 35).

[2] = test system: TNF-α; experiment: TNF-α inhibitory effect in PBMC-derived monocyte (ELISA); assay type: cell-based, human; settings: PBMC-derived monocytes, 4 μM peptide 2 hrs; for TNF-α inhibiting effect compared to the group treated with LPS and estrogen: LPS 10 ng/ml, estrogen 20 nM; for TNF-α inhibiting effect compared to the control group treated with only LPS: LPS 10 ng/ml 2 hours
Method: PBMC (peripheral blood mononuclear cells) layer was separated from blood samples (50 ml) collected in healthy subjects using Biocoll Separating Solution (Biochrom AG, Berlin, Germany). The collected PBMC were enriched in RPMI 1640 medium containing 20% human serum for 30 mins, and then transferred to 100-mm polystyeren cell culture plate coated with human serum for incubation for 2 hrs at 37° C., 5% CO^2 incubator. Monocytes were detached from the bottom of the plate using cold PBS, and incubated to reach the number of 1×10^5 cell/well in 96-well plate with RPMI 1640 medium (supplemented with penicillin-streptomycin; 100 mg/ml, human serum; 20%) over night.
ELISA was performed to find out how the peptides of the PEP RIA series influence TNF-α level. PBMC-derived monocytes were incubated to reach the number of 1×10^5 cells per well in a 96-well plate and then treated with LPS (lipopolysaccharide; 10 ng/ml, Sigma) for 2 hours. To the monocytes that were washed three times with PBS, OPTI-MEM culture medium was added to induce cell starvation for an hour, 4 μM of the peptide was taken out and incubated for 2 hours. There were three negative control groups. The first group was not treated with anything. The second group that was treated with estrogen (in this experiment, estradiol was used as a kind of estrogen). The third group was treated with LPS (10 ng/ml) or with LPS (10 ng/ml) as well as estrogen (20 nM). PEP1 that was confirmed to have TNF-α inhibiting activity was used as a positive control to measure TNF-α inhibiting activity. After incubation, TNF-α was measured by following the ELISA kit manual (R&D, Minneapolis, Minn., USA). The details of quantification method can be found in Experiment 2.2 of Example 1.
Using the method stated above, Peptides with TNF-α inhibiting effect were screened. PBMC-derived monocytes were stimulated with LPS (10 ng/ml), which is endotoxin, for 2 hours and were induced to starve by adding OPTI-MEM for 1 hour. After that, 4 μM of 161 peptides were treated and incubated for 2 hrs. The amount of TNF-α in the cell culture medium was measured using ELISA, and the peptides with TNF-α inhibiting effect were screened by comparing to the negative and positive controls (FIG. 1 to FIG. 16).

Sequence: SVLGLDDIH (listed as Homo sapiens) [SEQ ID NO: 30]
- reduction of TNF-α level compared to control group treated only with LPS [1]: appeared to reduce the TNF-α level
- reduction of expression level of TNF-α compared to group treated with LPS and estrogen [1]: reduce the expression level of TNF-α

Sequence: GLLGASVLG (listed as Homo sapiens) [SEQ ID NO: 29]
- reduction of TNF-α level compared to control group treated only with LPS [1]: appeared to reduce the TNF-α level
- reduction of expression level of TNF-α compared to group treated with LPS and estrogen [1]: reduce the expression level of TNF-α
- TNF-α inhibiting effect compared to the group treated with LPS and estrogen [2]: showed TNF-α inhibiting effect

Sequence: FHQQVWKNPTFFLRVISDTA (listed as Homo sapiens) [SEQ ID NO: 99]
- TNF-α inhibiting effect compared to the group treated with LPS and estrogen [2]: showed TNF-α inhibiting effect

Sequence: DEALGGTAFVQMPAHGLFPW (listed as Homo sapiens) [SEQ ID NO: 151]
- reduction of TNF-α level compared to control group treated only with LPS [1]: appeared to reduce the TNF-α level

Sequence: RLPQRYWQMRPLFLELLGNH (listed as Homo sapiens) [SEQ ID NO: 67]
- reduction of TNF-α level compared to control group treated only with LPS [1]: appeared to reduce the TNF-α level

Sequence: SRPPRPWDTPCPPVYAETKH (listed as Homo sapiens) [SEQ ID NO: 121]
- TNF-α inhibiting effect compared to the group treated with LPS and estrogen [2]: showed TNF-α inhibiting effect

Sequence: AQCPYGVLLKTHCPLRAAVT (listed as Homo sapiens) [SEQ ID NO: 68]
- reduction of TNF-α level compared to control group treated only with LPS [1]: appeared to reduce the TNF-α level

Sequence: GTRHSHPSVGRQHHAGPPST (listed as Homo sapiens) [SEQ ID NO: 120]
- TNF-α inhibiting effect compared to the group treated with LPS and estrogen [2]: showed TNF-α inhibiting effect

Sequence: NKLFAGIRRDGLLLRLVDDF (listed as Homo sapiens) [SEQ ID NO: 148]
- reduction of TNF-α level compared to control group treated only with LPS [1]: appeared to reduce the TNF-α level
- TNF-α inhibiting effect compared to the control group treated with only LPS [2]: showed TNF-α inhibiting effect
- TNF-α inhibiting effect compared to the group treated with LPS and estrogen [2]: showed TNF-α inhibiting effect

Sequence: RTRGPSDRGFCVVSPARPAE (listed as Homo sapiens) [SEQ ID NO: 61]
- TNF-α inhibiting effect compared to the group treated with LPS and estrogen [2]: showed TNF-α inhibiting effect

Sequence: MPRAPRCRAVRSLLRSHYRE (listed as Homo sapiens) [SEQ ID NO: 48]
- TNF-α inhibiting effect compared to the group treated with LPS and estrogen [2]: showed TNF-α inhibiting effect

Sequence: CGPPLYQLGAATQARPPPHA (listed as Homo sapiens) [SEQ ID NO: 114]
- reduction of TNF-α level compared to control group treated only with LPS [1]: appeared to reduce the TNF-α level

Sequence: LFSVLNYERARRPGLLGASV (listed as Homo sapiens) [SEQ ID NO: 81]
- TNF-α inhibiting effect compared to the group treated with LPS and estrogen [2]: showed TNF-α inhibiting effect

Sequence: LGLDDIHRAWRTFVLRVRAQ (listed as Homo sapiens) [SEQ ID NO: 82]
- TNF-α inhibiting effect compared to the group treated with LPS and estrogen [2]: showed TNF-α inhibiting effect

Sequence: WMPGTPRRLPRLPQRYWQMR (listed as Homo sapiens) [SEQ ID NO: 124]
- TNF-α inhibiting effect compared to the control group treated with only LPS [2]: showed TNF-α inhibiting effect

Sequence: SGPRRRLGCERAWMHSVREA (SGPRRRLGCERAWNHSVREA; listed as Homo sapiens) [SEQ ID NO: 115]
- TNF-α inhibiting effect compared to the control group treated with only LPS [2]: showed TNF-α inhibiting effect

Sequence: SVLNYERARR (listed as Homo sapiens) [SEQ ID NO: 15]
- reduction of TNF-α level compared to control group treated only with LPS [1]: appeared to reduce the TNF-α level
- reduction of expression level of TNF-α compared to group treated with LPS and estrogen [1]: reduce the expression level of TNF-α

Sequence: QWLCHQAFLLKLTRHRVTTV (QWLCHQAFLLKLTRHRVTYV; listed as Homo sapiens) [SEQ ID NO: 159]
- reduction of expression level of TNF-α compared to group treated with LPS and estrogen [1]: reduce the expression level of TNF-α

Sequence: NRGFKAGRNMRRKLFGVLRL (listed as Homo sapiens) [SEQ ID NO: 96]
- TNF-α inhibiting effect compared to the control group treated with only LPS [2]: showed TNF-α inhibiting effect
- TNF-α inhibiting effect compared to the group treated with LPS and estrogen [2]: showed TNF-α inhibiting effect

Sequence: QMPAHGLFPWCGLLLDTRTL (listed as Homo sapiens) [SEQ ID NO: 94]
- reduction of TNF-α level compared to control group treated only with LPS [1]: appeared to reduce the TNF-α level

Sequence: FFLRVISDTASLCYSILKAK (listed as Homo sapiens) [SEQ ID NO: 157]
- reduction of expression level of TNF-α compared to group treated with LPS and estrogen [1]: reduce the expression level of TNF-α

Sequence: YERARRPGL (listed as Homo sapiens) [SEQ ID NO: 10]
- reduction of TNF-α level compared to control group treated only with LPS [1]: appeared to reduce the TNF-α level
- reduction of expression level of TNF-α compared to group treated with LPS and estrogen [1]: reduce the expression level of TNF-α

Sequence: VLGLDDIHRA (listed as Homo sapiens) [SEQ ID NO: 12]
- reduction of TNF-α level compared to control group treated only with LPS [1]: appeared to reduce the TNF-α level
- reduction of expression level of TNF-α compared to group treated with LPS and estrogen [1]: reduce the expression level of TNF-α

Sequence: LLGASVLGL (listed as Homo sapiens) [SEQ ID NO: 11]
- TNF-α inhibiting effect compared to the control group treated with only LPS [2]: showed TNF-α inhibiting effect

Sequence: LKRVQLRELSEAEVRQ (listed as Homo sapiens) [SEQ ID NO: 47]
- TNF-α inhibiting effect compared to the group treated with LPS and estrogen [2]: showed TNF-α inhibiting effect

Sequence: RTFVLRVRAQDPPPE (listed as Homo sapiens) [SEQ ID NO: 7]
- reduction of TNF-α level compared to control group treated only with LPS [1]: appeared to reduce the TNF-α level
- reduction of expression level of TNF-α compared to group treated with LPS and estrogen [1]: reduce the expression level of TNF-α

Sequence: AERLTSRVKALFSVL (listed as Homo sapiens) [SEQ ID NO: 9]
- reduction of TNF-α level compared to control group treated only with LPS [1]: appeared to reduce the TNF-α level
- reduction of expression level of TNF-α compared to group treated with LPS and estrogen [1]: reduce the expression level of TNF-α
- TNF-α inhibiting effect compared to the control group treated with only LPS [2]: showed TNF-α inhibiting effect

Sequence: GVPLGLPSPGARRRGGSASR (GVPLGLPAPGARRRGGSASR; listed as Homo sapiens) [SEQ ID NO: 116]
- TNF-α inhibiting effect compared to the control group treated with only LPS [2]: showed TNF-α inhibiting effect

Sequence: GASVLGLDDI (listed as Homo sapiens) [SEQ ID NO: 13]
- reduction of TNF-α level compared to control group treated only with LPS [1]: appeared to reduce the TNF-α level
- reduction of expression level of TNF-α compared to group treated with LPS and estrogen [1]: reduce the expression level of TNF-α

Sequence: LLVTPHLTHAKTFLRTLVRG (listed as Homo sapiens) [SEQ ID NO: 149]
- reduction of TNF-α level compared to control group treated only with LPS [1]: appeared to reduce the TNF-α level
- TNF-α inhibiting effect compared to the control group treated with only LPS [2]: showed TNF-α inhibiting effect
- TNF-α inhibiting effect compared to the group treated with LPS and estrogen [2]: showed TNF-α inhibiting effect

Sequence: RFMCHHAVRIRGKSYVQCQG (listed as Homo sapiens) [SEQ ID NO: 146]
- reduction of TNF-α level compared to control group treated only with LPS [1]: appeared to reduce the TNF-α level
- TNF-α inhibiting effect compared to the control group treated with only LPS [2]: showed TNF-α inhibiting effect
- TNF-α inhibiting effect compared to the group treated with LPS and estrogen [2]: showed TNF-α inhibiting effect

Sequence: EDTDPRRLVQLLRQHSSPWQ (listed as Homo sapiens) [SEQ ID NO: 70]
- reduction of TNF-α level compared to control group treated only with LPS [1]: appeared to reduce the TNF-α level
- TNF-α inhibiting effect compared to the group treated with LPS and estrogen [2]: showed TNF-α inhibiting effect

Sequence: RFHACVLQLPFHQQVWKNPT (listed as Homo sapiens) [SEQ ID NO: 156]
- reduction of expression level of TNF-α compared to group treated with LPS and estrogen [1]: reduce the expression level of TNF-α
